Measured values: article PMC5104425, “A Novel Selective Inhibitor of Delta-5 Desaturase Lowers Insulin Resistance and Reduces Body Weight in Diet-Induced Obese C57BL/6J Mice” (PLoS ONE, 2016)

What was measured:
D5D = test: Blood fatty acids (PD markers AA, DGLA, EPA, DHA) after 6-week treatment in DIO mice; format: in vivo, C57BL/6J mice; conditions: compound-326 0.1, 1, 10 mg/kg, 6 weeks
Experimental: Fatty acids were extracted from blood and tissues by adding hexane-isopropanol-butylated hydroxytoluene (60:40:0.01, v/v/w). Samples were vortexed for 30 min. The hexane phase was removed and evaporated to dryness under nitrogen stream and vacuum. Dried samples were dissolved in methanol and analyzed by HPLC.
Mice were fed a high-fat diet (HFD) that has 60% kcal from fat and contains 0.09% (w/w) AA (D12492; Research diets, Inc., see S1 Table for fatty acid profile) from 5 weeks of age, and they were divided into 5 groups (7 animals per group) at 11 weeks of age based on BW and daily food intake. In this experiment, 30 mg/kg sibutramine, a […], was used as a positive control for anti-obesity effects. Mice were orally administered compound-326 at doses of 0.1, 1, and 10 mg/kg, sibutramine at a dose of 30 mg/kg, or vehicle for 6 weeks. After 6 weeks, blood concentrations of DGLA and AA under non-fasting condition were evaluated as pharmacodynamics (PD) markers, and oral glucose tolerance test (OGTT) was performed.

[1] = tested on: epididymal fat of DIO mice; test: Satellite DIO mice, day 32: epididymal fat gene expression and BW; format: in vivo, C57BL/6J mice; conditions: 10 mg/kg, 32 days
Excerpt: Total RNA was extracted and purified using RNeasy Mini Kit (QIAGEN, USA). First-strand cDNA was synthesized using High Capacity cDNA Reverse Transcription Kits (Thermo Fisher, USA). The mRNA levels were quantified by an ABI Prism 7900 TaqMan PCR system (Thermo Fisher, USA) according to the manufacturer’s instruction using TaqMan® Universal PCR Mastermix with the primer-probe sets of TaqMan Gene Expression Assays (Thermo Fisher, USA) for the following genes: Ccl2 (chemokine (C-C motif) ligand 2; Mm99999056_m1), Cd68 (CD68 antigen; Mm03047343_m1), Adgre1 (adhesion G protein-coupled receptor E1; Mm00802529_m1), Tnf (tumor necrosis factor; Mm00443258_m1), Il6 (interleukin 6; Mm99999064), Lep (leptin; Mm00434759_m1), Adipoq (adiponectin; Mm00456425_m1), Fads2 ([…]; Mm00517221_m1), Fads1 ([…]; Mm00507605_m1), Ucp1 (uncoupling protein 1; Mm00494069_m1), Elovl3 (elongation of very long chain fatty acids 3; Mm00468164_m1), Cidea (cell death-inducing DNA fragmentation factor, alpha subunit-like effector A; Mm00432554_m1), Otop1 (otopetrin 1; Mm00554705_m1), and Rplp0 (ribosomal protein, large, P0; forward; 5'-[…]-3', reverse; 5'-[…]-3', probe (VIC-5'→3'-TAMRA); 5'-[…]-3'). The Rplp0 mRNA level was used as a reference and relative transcript levels were calculated with the comparative Ct method (2^-ΔΔCT) (Applied Bio-systems).
In 6 weeks administration study of compound-326 (10 mg/kg), satellite animals were prepared to evaluate the gene expression levels in epididymal fat at the intermediate point (day 32). Mice fed a HFD (D12079B; Research diets, Inc.) from 5 weeks of age were divided into 2 groups at the age of 8 weeks (11 animals per group), and were administered 10 mg/kg compound-326 or vehicle for 32 days. After the treatment period, mice were sacrificed and epididymal fat were harvested for mRNA analysis. […] (B) RT-qPCR was performed in epididymal fat tissue after 32 days treatment. Data are expressed as mean ± SE (n=11). *p≤ 0.05 vs. DIO vehicle by Aspin-Welch test. ¶¶p≤ 0.01 vs. DIO vehicle by Student's t-test.

Question: What does the source list for `O=C1Cc2c(nc(OCC(F)(F)C(F)(F)F)n(-c3ccc(OCC(F)(F)F)cc3)c2=O)N1` [Compound-326, 2-(2,2,3,3,3-Pentafluoropropoxy)-3-[4-(2,2,2-trifluoroethoxy)phenyl]-5,7-dihydro-3H-pyrrolo[2,3-d]pyrimidine-4,6-dione]?
Answer: blood AA to DGLA ratio (D5D): decreased significantly; blood level of DHA (D5D; dose dependent): decreased; blood level of EPA (D5D; dose dependent): decreased; blood AA (D5D; dose-dependent, non-fasting): decreased; blood DGLA (D5D; dose-dependent, non-fasting): increased; Adgre1 gene expression level in epididymal fat [1]: significantly decreased; BW [1]: no significant BW loss; Ccl2 gene expression level in epididymal fat [1]: significantly decreased; Cd68 gene expression level in epididymal fat [1]: significantly decreased; Il6 gene expression level in epididymal fat [1]: significantly decreased
